From patent US20170080049A1, “MEDICINE AGAINST GROWTH FAILURE INDUCED BY ADMINISTRATION OF STEROID” (DAIICHI SANKYO COMPANY, LIMITED, priority 2014, published 2017)

What was measured:
[1] = system: steroid-induced growth failure, male Crlj:WI (Wistar) rat; experiment: Simultaneous combined administration test of various steroids and CNP derivative (A) in rats (Example 5); assay type: in vivo
Experimental: 0.3 mg/mL solution of dexamethasone (dexamethasone injection “KS”, available from Kyoritsuseiyaku Corporation diluted with saline), prednisolone succinate suspended in 0.1% polysorbate-containing brine (available from Wako Pure Chemical Industries, Ltd., concentration of 5 mg/mL as prednisolone), or betamethasone dipropionate suspended in 0.1% polysorbate-containing brine (available from Wako Pure Chemical Industries, Ltd., concentration of 0.3 mg/mL as betamethasone) was administered to the hypoderm of the back of a 4-week-old male Crlj:WI (Wistar) rat (ten animals for each set of substances) in a volume of 1 mL/kg once a day for 28 days. No substance was administered to the control group (5 animals, Group 1). At the same time, for five of ten animals in each set (Group 2, Group 4, Group 6) a medium (0.03 mol/L acetate buffer (pH 4.0)/1% benzyl alcohol/10% sucrose) and for the remaining five animals (Group 3, Group 5, Group 7) the medium and a 1 mg/mL solution of CNP derivative (A) were administered in combination in the hypoderm of the back in a volume of 1 mL/kg once a day for 28 days. After measuring the body weight, the body length and the tail length under isoflurane anesthesia on the day after the final day of administration, blood was collected from the abdominal aorta and the animal was caused to die, the right femur was extracted and the femur length was measured.

[2] = system: dexamethasone-induced rat growth failure model; experiment: Combined administration study of human-type CNP-53 or various CNP derivatives in dexamethasone-induced rat growth failure model (Example 3); assay type: in vivo; conditions: dexamethasone 0.67 mg/mL pump alone or combined with 15 mg/mL pump of the CNP peptide, 5-week-old male Wistar rat, n=5
Experimental: Osmotic pumps (MINI-OSMOTIC PUMP Model 2004, available from DURECT CORPORATION, flow rate: 0.25 μL/hr, for 28 days) were charged with 0.67 mg/mL solution of dexamethasone (dexamethasone injection “KS”, available from Kyoritsuseiyaku Corporation) and one osmotic pump was embedded in the hypoderm of the back of each 5-week-old male Crlj:WI (Wistar) rat (5 animals/group, Groups 2 to 6, a total of 25 animals). At the same time, one osmotic pump (the same as above) charged with a 15 mg/mL solution of CNP derivative (A) in Group 3, human-type CNP-53 in Group 4, CNP derivative (B) in Group 5 and CNP derivative (C) in Group 6 was embedded in the hypoderm of the back simultaneously. No substance was administered to the normal control group (Group 1, 5 animals). Then the animals were fed for 28 days, and transitions of the body weight, the body length and the tail length were measured. On the final day, the blood was collected from the abdominal aorta and the animals were caused to die under isoflurane anesthesia, and plasma was separated from the collected blood and the cholesterol concentration was determined by using a “LabAssay (trademark) cholesterol” (available from Wako Pure Chemical Industries, Ltd.). After collecting the blood and causing the animals to die, the right femur and thymus were extracted, and the length of the right femur and the weight of the thymus were measured.

[3] = dexamethasone 0.3 mg/mL, 1 mL/kg s.c. once a day 28 days, + medium or + CNP derivative (A) 1 mg/kg, n=5

## C[C@@H]1C[C@H]2[C@@H]3CCC4=CC(=O)C=C[C@]4(C)[C@@]3(F)[C@@H](O)C[C@]2(C)[C@@]1(O)C(=O)CO [Dexamethasone, dexamethasone]
[1]; [3]
  Body length at dissection: 177 ± 4 mm
  Body length, variation from preadministration value (Δ value): (27 ± 5) mm
  Body weight, variation from preadministration value (Δ value): (69 ± 5) g
  Right femur length at dissection: 28.3 ± 0.4 mm
  Tail length at dissection: 174 ± 4 mm
  Tail length, variation from preadministration value (Δ value): (47 ± 7) mm
[1]; dexamethasone 0.3 mg/mL, 1 mL/kg s.c. once a day 28 days, + medium or + CNP derivative (A) 1 mg/mL, 1 mL/kg s.c. once a day, 4-week-old male Wistar rat, mean ± SD, n=5
  Body weight at dissection: 176 ± 5 g
[1]; rat, in vivo, sc
  growth failure in rats by repeated administration of the steroid for 28 days (in words): induce growth failure
[2]; 0.25 μL/hr continuous s.c. 28 days, mean ± SD
  Body weight at dissection: 286 ± 17 g
[2]; continuous s.c. 28 days
  Body length at dissection: 199 ± 2 mm
  Body length, variation from preadministration value (Δ value): (23.8 ± 2.4) mm
  Body weight, variation from preadministration value (Δ value): (118 ± 15) g
  Right femur length at dissection: 32.7 ± 0.3 mm
  Tail length at dissection: 202 ± 3 mm
  Tail length, variation from preadministration value (Δ value): (35.2 ± 3.7) mm
  thymus body weight ratio: [0.11 ± 0.02%]
  thymus weight at dissection: 0.36 ± 0.04 g
